{"source": "paper PMC3899232", "about": "“Peptide Binding Properties of the Three PDZ Domains of Bazooka (Drosophila Par-3)” (PLoS ONE, 2014)", "key": {"GST-PDZ2 (Baz PDZ2)": {"target": "GST-PDZ2 (Baz PDZ2) (Drosophila melanogaster, UniProt Q0KHR3)", "sequence (Q0KHR3 1-1520)": "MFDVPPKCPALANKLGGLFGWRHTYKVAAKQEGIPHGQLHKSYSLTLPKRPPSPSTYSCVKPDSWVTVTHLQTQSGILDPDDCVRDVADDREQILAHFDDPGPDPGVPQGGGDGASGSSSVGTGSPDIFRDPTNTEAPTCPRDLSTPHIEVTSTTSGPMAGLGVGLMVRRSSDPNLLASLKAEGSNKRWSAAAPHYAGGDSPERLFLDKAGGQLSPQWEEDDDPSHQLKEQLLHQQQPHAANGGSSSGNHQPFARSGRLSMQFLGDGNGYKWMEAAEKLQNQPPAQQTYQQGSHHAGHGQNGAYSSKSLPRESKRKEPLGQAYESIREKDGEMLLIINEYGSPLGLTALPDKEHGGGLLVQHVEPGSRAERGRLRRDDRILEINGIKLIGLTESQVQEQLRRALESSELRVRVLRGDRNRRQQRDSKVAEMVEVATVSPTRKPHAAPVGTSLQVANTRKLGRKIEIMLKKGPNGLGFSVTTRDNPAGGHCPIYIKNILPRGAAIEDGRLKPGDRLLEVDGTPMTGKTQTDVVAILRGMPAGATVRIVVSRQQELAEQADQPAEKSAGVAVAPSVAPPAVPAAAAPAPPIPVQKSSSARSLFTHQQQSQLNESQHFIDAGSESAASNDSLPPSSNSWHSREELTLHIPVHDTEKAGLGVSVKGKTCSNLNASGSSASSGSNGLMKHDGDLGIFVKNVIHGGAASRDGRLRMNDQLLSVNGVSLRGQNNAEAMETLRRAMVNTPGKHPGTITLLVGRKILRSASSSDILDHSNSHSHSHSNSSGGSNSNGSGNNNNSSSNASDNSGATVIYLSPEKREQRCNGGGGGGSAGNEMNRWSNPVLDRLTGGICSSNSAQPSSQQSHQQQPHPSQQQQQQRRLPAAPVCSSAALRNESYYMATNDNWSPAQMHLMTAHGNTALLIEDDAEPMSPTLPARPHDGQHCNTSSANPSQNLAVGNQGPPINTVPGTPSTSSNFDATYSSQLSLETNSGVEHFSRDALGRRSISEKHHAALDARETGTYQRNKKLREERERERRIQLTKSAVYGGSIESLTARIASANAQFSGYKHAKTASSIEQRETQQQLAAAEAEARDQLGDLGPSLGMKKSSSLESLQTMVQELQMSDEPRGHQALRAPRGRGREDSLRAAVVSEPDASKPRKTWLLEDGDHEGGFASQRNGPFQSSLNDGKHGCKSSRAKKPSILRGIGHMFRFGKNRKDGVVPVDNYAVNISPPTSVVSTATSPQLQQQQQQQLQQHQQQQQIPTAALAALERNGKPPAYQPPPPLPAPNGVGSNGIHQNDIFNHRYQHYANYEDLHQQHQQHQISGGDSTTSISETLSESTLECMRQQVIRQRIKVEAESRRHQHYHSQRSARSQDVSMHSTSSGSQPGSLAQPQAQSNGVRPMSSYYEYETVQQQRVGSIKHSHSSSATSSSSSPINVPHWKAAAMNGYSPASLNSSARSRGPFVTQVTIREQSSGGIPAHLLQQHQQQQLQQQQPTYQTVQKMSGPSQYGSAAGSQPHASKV", "experiment": "SPR binding of peptides to immobilized GST-PDZ2 (Biacore 3000)", "settings": "for Kd: GST-PDZ2 immobilized on CM5 at 30 µg/ml in 10 mM HEPES pH 7.0, HBS-EP running buffer pH 7.4, steady state model", "method": "(§1) To test the binding of purified peptides to the PDZ domain GST fusion proteins, we acquired one peptide for each PDZ domain corresponding to single peptides identified by phage display (Fig. 3A). We separately immobilized PDZ domain GST fusion proteins on solid supports and analyzed peptide binding by surface plasmon resonance (SPR).\n(§2) Binding experiments were conducted with a Biacore 3000 biosensor (GE Healthcare, USA), as described. Specifically, the GST fusion proteins of each PDZ domain alone or of the PDZ domains in tandem were immobilized on CM5 chips (GE Healthcare) at a concentration of 30 µg/ml in 10 mM sodium acetate (pH 5.5) for PDZ1, PDZ3 and PDZ1-3, and in 10 mM HEPES (pH 7.0) for PDZ2. The peptides for SPR were biotinylated but otherwise identical to those indentified by phage display (Peptide 1, Biotin-SAPGGGLRIVNGLWIF; Peptide 2, Biotin-SAPGGGDREWWV; Peptide 3, Biotin-SAPGGGRVLWFDLGIF; synthesized by Sheldon Biotechnology Centre, McGill University, Canada). All peptides were solubilized in HBS-EP running buffer (10 mM Hepes pH 7.4, 150 mM NaCl, 3 mM EDTA, 0.005% Surfactant P20) and were flowed over the immobilized proteins in this buffer. For Peptide 1 and Peptide 3, KD values were determined with a 1∶1 binding model with drifting baseline. For Peptide 2, KD values were determined with a steady state model."}, "[1]": {"target": "GST-PDZ1-3 (Baz PDZ domains in tandem) (Drosophila melanogaster, UniProt Q0KHR3)", "sequence (Q0KHR3 1-1520)": "as above", "experiment": "SPR binding of peptides to immobilized tandem GST-PDZ1-3 (Biacore 3000)", "settings": "for KD values of GST-PDZ1-3 compared with single GST-PDZ domains (in words): SPR, HBS-EP pH 7.4, tandem versus single PDZ domain alone; for Kd: tandem GST-PDZ1-3 immobilized on CM5 at 30 µg/ml in 10 mM sodium acetate pH 5.5, HBS-EP running buffer pH 7.4", "from_the_text": "With the binding strengths of individual PDZ domain-peptide interactions quantified, we next investigated whether the natural tandem arrangement of the PDZ domains affects their peptide binding. For these experiments, we purfied GST-PDZ1-3 and confirmed its stability by SDS-PAGE (Fig. 2B). To test the binding properties of the individual PDZ domains within the tandem, we separately probed GST-PDZ1-3 with Peptides 1, 2 and 3. […] To assess binding quantitatively, we determined the KD values of GST-PDZ1-3 binding to each peptide. […] Thus, the peptide binding pockets of each PDZ domain appear to be unaffected by tandem organization of the PDZ domains.\nas §2"}, "GST-PDZ3 (Baz PDZ3)": {"target": "GST-PDZ3 (Baz PDZ3) (Drosophila melanogaster, UniProt Q0KHR3)", "sequence (Q0KHR3 1-1520)": "as above", "experiment": "SPR binding of peptides to immobilized GST-PDZ3 (Biacore 3000)", "settings": "for Kd: GST-PDZ3 immobilized on CM5 at 30 µg/ml in 10 mM sodium acetate pH 5.5, HBS-EP running buffer pH 7.4, 1:1 binding model with drifting baseline", "method": "as §1, §2"}, "GST-PDZ1 (Baz PDZ1)": {"target": "GST-PDZ1 (Baz PDZ1) (Drosophila melanogaster, UniProt Q0KHR3)", "sequence (Q0KHR3 1-1520)": "as above", "experiment": "SPR binding of peptides to immobilized GST-PDZ1 (Biacore 3000)", "settings": "for Kd: GST-PDZ1 immobilized on CM5 at 30 µg/ml in 10 mM sodium acetate pH 5.5, HBS-EP running buffer pH 7.4, 1:1 binding model with drifting baseline", "method": "as §1, §2"}, "[2]": {"target": "GST-Baz PDZ1-3 (fusion protein containing all three PDZ domains and their normal linker regions) (Drosophila)", "experiment": "SPR; Biacore 3000; GST fusion protein immobilised on CM5 chip (30 µg/ml in 10 mM sodium acetate pH 5.5); Peptide 1 or Peptide 3 flowed in HBS-EP (10 mM Hepes pH 7.4, 150 mM NaCl, 3 mM EDTA, 0.005% Surfactant P20); 1:1 binding model with drifting baseline"}, "[3]": {"target": "GST-PDZ1 (GST fusion protein of Baz PDZ1) (Drosophila)", "experiment": "SPR; Biacore 3000; GST fusion protein immobilised on CM5 chip (30 µg/ml in 10 mM sodium acetate pH 5.5); Peptide 1 or Peptide 3 flowed in HBS-EP (10 mM Hepes pH 7.4, 150 mM NaCl, 3 mM EDTA, 0.005% Surfactant P20); 1:1 binding model with drifting baseline"}, "[4]": {"target": "GST-PDZ3 (GST fusion protein of Baz PDZ3) (Drosophila)", "experiment": "SPR; Biacore 3000; GST fusion protein immobilised on CM5 chip (30 µg/ml in 10 mM sodium acetate pH 5.5); Peptide 1 or Peptide 3 flowed in HBS-EP (10 mM Hepes pH 7.4, 150 mM NaCl, 3 mM EDTA, 0.005% Surfactant P20); 1:1 binding model with drifting baseline"}, "[5]": {"target": "GST-Baz PDZ1-3 (fusion protein containing all three PDZ domains and their normal linker regions) (Drosophila)", "experiment": "SPR; Biacore 3000; GST fusion protein immobilised on CM5 chip (30 µg/ml; PDZ2 in 10 mM HEPES pH 7.0, PDZ1-3 in 10 mM sodium acetate pH 5.5); Peptide 2 flowed in HBS-EP (10 mM Hepes pH 7.4, 150 mM NaCl, 3 mM EDTA, 0.005% Surfactant P20); steady state model"}, "[6]": {"target": "GST-PDZ2 (GST fusion protein of Baz PDZ2) (Drosophila)", "experiment": "SPR; Biacore 3000; GST fusion protein immobilised on CM5 chip (30 µg/ml; PDZ2 in 10 mM HEPES pH 7.0, PDZ1-3 in 10 mM sodium acetate pH 5.5); Peptide 2 flowed in HBS-EP (10 mM Hepes pH 7.4, 150 mM NaCl, 3 mM EDTA, 0.005% Surfactant P20); steady state model"}, "[7]": {"settings": "replicate 1 (separately purified proteins, separately prepared peptides)"}, "[8]": {"settings": "replicate 2 (separately purified proteins, separately prepared peptides)"}, "[9]": {"settings": "replicate 1 (separately purified proteins, separately prepared peptides), Peptides 1 and 3: 1:1 binding model with drifting baseline"}, "[10]": {"settings": "replicate 2 (separately purified proteins, separately prepared peptides), Peptides 1 and 3: 1:1 binding model with drifting baseline"}}, "note": "Several values for one entry are separate records, joined by “and”; a condition that tells them apart may be missing. Equal values may be shown once. Ends that are not written are not given here. Peptide text beside a SMILES is read from it. * marks the point of attachment. Biotin = O=C1N[C@H]2[C@H](CS[C@H]2CCCCC(=O)*)N1"}
{"molecule": "CC(C)[C@H](NC(=O)[C@H](Cc1c[nH]c2ccccc12)NC(=O)[C@H](Cc1c[nH]c2ccccc12)NC(=O)[C@H](CCC(=O)O)NC(=O)[C@H](CCCNC(=N)N)NC(=O)[C@H](CC(=O)O)NC(=O)CNC(=O)CNC(=O)CNC(=O)[C@@H]1CCCN1C(=O)[C@H](C)NC(=O)[C@H](CO)NC(=O)CCCC[C@@H]1SC[C@@H]2NC(=O)N[C@@H]21)C(=O)O", "note": "[Peptide 2, Biotin-SAPGGGDREWWV] (Biotin-SAPGGGDREWWV-OH)", "values": [{"measurement": "KD values (in words)", "setting": "GST-PDZ2 (Baz PDZ2); SPR, HBS-EP pH 7.4, GST-PDZ2, summary of Table 1", "result": "in the µM range"}, {"measurement": "Kd", "setting": "GST-PDZ2 (Baz PDZ2); [7]", "result": 17.7, "unit": "µM"}, {"measurement": "Kd", "setting": "GST-PDZ2 (Baz PDZ2); [8]", "result": 13, "unit": "µM"}, {"measurement": "KD values of GST-PDZ1-3 compared with single GST-PDZ domains (in words)", "setting": "[1]", "result": "very close to those of each GST-PDZ domain alone"}, {"measurement": "Kd", "setting": "[1]; replicate 1 (separately purified proteins, separately prepared peptides), Peptide 2: steady state model", "result": 9130, "unit": "nM"}, {"measurement": "Kd", "setting": "[1]; replicate 2 (separately purified proteins, separately prepared peptides), Peptide 2: steady state model", "result": 9980, "unit": "nM"}]}
{"molecule": "CC[C@H](C)[C@H](NC(=O)CNC(=O)[C@H](CC(C)C)NC(=O)[C@H](CC(=O)O)NC(=O)[C@H](Cc1ccccc1)NC(=O)[C@H](Cc1c[nH]c2ccccc12)NC(=O)[C@H](CC(C)C)NC(=O)[C@@H](NC(=O)[C@H](CCCNC(=N)N)NC(=O)CNC(=O)CNC(=O)CNC(=O)[C@@H]1CCCN1C(=O)[C@H](C)NC(=O)[C@H](CO)NC(=O)CCCC[C@@H]1SC[C@@H]2NC(=O)N[C@@H]21)C(C)C)C(=O)N[C@@H](Cc1ccccc1)C(=O)O", "note": "[Peptide 3, Biotin-SAPGGGRVLWFDLGIF] (Biotin-SAPGGGRVLWFDLGIF-OH)", "values": [{"measurement": "KD values (in words)", "setting": "GST-PDZ3 (Baz PDZ3); SPR, HBS-EP pH 7.4, GST-PDZ3, summary of Table 1", "result": "in the nM range"}, {"measurement": "Kd", "setting": "GST-PDZ3 (Baz PDZ3); [7]", "result": 45.9, "unit": "nM"}, {"measurement": "Kd", "setting": "GST-PDZ3 (Baz PDZ3); [8]", "result": 25.2, "unit": "nM"}, {"measurement": "KD values of GST-PDZ1-3 compared with single GST-PDZ domains (in words)", "setting": "[1]", "result": "very close to those of each GST-PDZ domain alone"}, {"measurement": "Kd", "setting": "[1]; [9]", "result": 49.4, "unit": "nM"}, {"measurement": "Kd", "setting": "[1]; [10]", "result": 32.6, "unit": "nM"}]}
{"molecule": "CC[C@H](C)[C@H](NC(=O)[C@H](Cc1c[nH]c2ccccc12)NC(=O)[C@H](CC(C)C)NC(=O)CNC(=O)[C@H](CC(N)=O)NC(=O)[C@@H](NC(=O)[C@@H](NC(=O)[C@H](CCCNC(=N)N)NC(=O)[C@H](CC(C)C)NC(=O)CNC(=O)CNC(=O)CNC(=O)[C@@H]1CCCN1C(=O)[C@H](C)NC(=O)[C@H](CO)NC(=O)CCCC[C@@H]1SC[C@@H]2NC(=O)N[C@@H]21)[C@@H](C)CC)C(C)C)C(=O)N[C@@H](Cc1ccccc1)C(=O)O", "note": "[Peptide 1, Biotin-SAPGGGLRIVNGLWIF] (Biotin-SAPGGGLRIVNGLWIF-OH)", "values": [{"measurement": "KD values (in words)", "setting": "GST-PDZ1 (Baz PDZ1); SPR, HBS-EP pH 7.4, GST-PDZ1, summary of Table 1", "result": "in the nM range"}, {"measurement": "Kd", "setting": "GST-PDZ1 (Baz PDZ1); [7]", "result": 164, "unit": "nM"}, {"measurement": "Kd", "setting": "GST-PDZ1 (Baz PDZ1); [8]", "result": 186, "unit": "nM"}, {"measurement": "KD values of GST-PDZ1-3 compared with single GST-PDZ domains (in words)", "setting": "[1]", "result": "very close to those of each GST-PDZ domain alone"}, {"measurement": "Kd", "setting": "[1]; [9]", "result": 263, "unit": "nM"}, {"measurement": "Kd", "setting": "[1]; [10]", "result": 245, "unit": "nM"}]}
{"molecule": "Biotin-SAPGGGLRIVNGLWIF", "note": "[Peptide 1 (Biotin-…)]", "values": [{"measurement": "Kd", "setting": "[2]", "result": "263 nM and 245 nM"}, {"measurement": "Kd", "setting": "[3]", "result": "164 nM and 186 nM"}]}
{"molecule": "Biotin-SAPGGGRVLWFDLGIF", "note": "[Peptide 3 (Biotin-…)]", "values": [{"measurement": "Kd", "setting": "[2]", "result": "49.4 nM and 32.6 nM"}, {"measurement": "Kd", "setting": "[4]", "result": "25.2 nM and 45.9 nM"}]}
{"molecule": "Biotin-SAPGGGDREWWV", "note": "[Peptide 2 (Biotin-…)]", "values": [{"measurement": "Kd", "setting": "[5]", "result": "9.13 µM and 9.98 µM"}, {"measurement": "Kd", "setting": "[6]", "result": "17.7 µM and 13 µM"}]}
